Structures can show the parent of a compound that is named as a salt.
How the values were obtained:
[1] = cited from earlier work
[2] = tested on: EGI-1 cell line; test: subcutaneous xenograft model (EGI-1 cell line); type: in vivo, athymic nude mice
Method: FIG. 3G is a photograph of tumors obtained in a subcutaneous xenograft model using athymic nude mice (top row=vehicle treated; bottom row=20 mg/kg/day Tivozanib treatment for 28 days).
FIG. 3L provides a photograph of tumors obtained in an EGI-1 CCA cell line subcutaneous xenograft model following 28 days of treatment with vehicle or bevacizumab (top row=vehicle treated; bottom row=bevacizumab). Bevacizumab was provided at the standard murine dose. […] However, the reduction was not as dramatic as that seen with tivozanib alone (see FIG. 3H). As bevacizumab is an anti-VEGF antibody, the reduction seen in tumor volume provided by tivozanib cannot be attributed to its VEGF inhibitory properties alone; otherwise, a similar reduction would have been expected with bevacizumab.
To confirm that the tumoricidal effects of tivozanib were not due to its activity as a VEGF inhibitor, but could be attributed to action on SLK, the antitumor effects of bevacizumab, an anti-VEGF antibody, on EGI-1 cholangiocarcinoma xenografts were evaluated. […] If the decrease in tumor size with tivozanib was due solely to its activity as a VEGF inhibitor, bevacizumab should have produced similar results.

[3] = patients on Tivozanib; cited from earlier work
[4] = tested on: AKT S473 phosphorylation; test: AKT S473 phosphorylation in SNU-1079 cholangiocarcinoma cells; type: cell-based; details: SNU-1079 cell line, compared to control levels
[5] = molecular target: c-kit (Homo sapiens, UniProt P10721); details: at clinically relevant concentrations; cited from earlier work
Sequence of c-kit (P10721 26-976): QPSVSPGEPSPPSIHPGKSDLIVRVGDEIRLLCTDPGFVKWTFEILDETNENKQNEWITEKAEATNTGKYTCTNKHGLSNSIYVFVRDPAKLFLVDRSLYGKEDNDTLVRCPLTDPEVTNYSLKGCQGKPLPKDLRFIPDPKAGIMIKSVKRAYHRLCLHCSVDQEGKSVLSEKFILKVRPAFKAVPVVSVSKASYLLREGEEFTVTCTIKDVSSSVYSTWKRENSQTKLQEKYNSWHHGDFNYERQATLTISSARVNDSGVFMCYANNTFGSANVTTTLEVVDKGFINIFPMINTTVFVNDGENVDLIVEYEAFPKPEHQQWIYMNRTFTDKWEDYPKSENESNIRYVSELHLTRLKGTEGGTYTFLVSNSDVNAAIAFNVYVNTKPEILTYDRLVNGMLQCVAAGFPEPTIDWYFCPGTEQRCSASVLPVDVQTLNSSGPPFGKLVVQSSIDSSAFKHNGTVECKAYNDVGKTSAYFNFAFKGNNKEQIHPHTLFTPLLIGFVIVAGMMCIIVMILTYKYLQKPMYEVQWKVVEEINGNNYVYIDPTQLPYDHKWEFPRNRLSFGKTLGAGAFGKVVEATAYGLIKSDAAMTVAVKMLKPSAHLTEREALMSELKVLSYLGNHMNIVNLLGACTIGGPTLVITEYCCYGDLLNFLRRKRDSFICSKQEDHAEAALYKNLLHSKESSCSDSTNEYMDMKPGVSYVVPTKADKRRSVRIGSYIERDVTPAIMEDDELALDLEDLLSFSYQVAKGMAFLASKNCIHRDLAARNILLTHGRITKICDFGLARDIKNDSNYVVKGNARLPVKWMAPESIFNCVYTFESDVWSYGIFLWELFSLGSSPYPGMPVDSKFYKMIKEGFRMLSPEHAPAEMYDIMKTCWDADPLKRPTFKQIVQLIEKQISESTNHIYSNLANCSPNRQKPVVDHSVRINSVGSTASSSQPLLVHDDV

[6] = tested on: EGI-1; test: proliferation of EGI-1 cholangiocarcinoma cells; type: cell-based; details: EGI-1 cell line; IC50 only in FIG. 3C-3E
[7] = tested on: AKT S473 phosphorylation; test: AKT S473 phosphorylation in WITT cholangiocarcinoma cells; type: cell-based; details: WITT cell line, compared to control levels
[8] = molecular target: PDGFR β (Homo sapiens, UniProt P09619); details: at clinically relevant concentrations; cited from earlier work
Sequence of PDGFR β (P09619 33-1106): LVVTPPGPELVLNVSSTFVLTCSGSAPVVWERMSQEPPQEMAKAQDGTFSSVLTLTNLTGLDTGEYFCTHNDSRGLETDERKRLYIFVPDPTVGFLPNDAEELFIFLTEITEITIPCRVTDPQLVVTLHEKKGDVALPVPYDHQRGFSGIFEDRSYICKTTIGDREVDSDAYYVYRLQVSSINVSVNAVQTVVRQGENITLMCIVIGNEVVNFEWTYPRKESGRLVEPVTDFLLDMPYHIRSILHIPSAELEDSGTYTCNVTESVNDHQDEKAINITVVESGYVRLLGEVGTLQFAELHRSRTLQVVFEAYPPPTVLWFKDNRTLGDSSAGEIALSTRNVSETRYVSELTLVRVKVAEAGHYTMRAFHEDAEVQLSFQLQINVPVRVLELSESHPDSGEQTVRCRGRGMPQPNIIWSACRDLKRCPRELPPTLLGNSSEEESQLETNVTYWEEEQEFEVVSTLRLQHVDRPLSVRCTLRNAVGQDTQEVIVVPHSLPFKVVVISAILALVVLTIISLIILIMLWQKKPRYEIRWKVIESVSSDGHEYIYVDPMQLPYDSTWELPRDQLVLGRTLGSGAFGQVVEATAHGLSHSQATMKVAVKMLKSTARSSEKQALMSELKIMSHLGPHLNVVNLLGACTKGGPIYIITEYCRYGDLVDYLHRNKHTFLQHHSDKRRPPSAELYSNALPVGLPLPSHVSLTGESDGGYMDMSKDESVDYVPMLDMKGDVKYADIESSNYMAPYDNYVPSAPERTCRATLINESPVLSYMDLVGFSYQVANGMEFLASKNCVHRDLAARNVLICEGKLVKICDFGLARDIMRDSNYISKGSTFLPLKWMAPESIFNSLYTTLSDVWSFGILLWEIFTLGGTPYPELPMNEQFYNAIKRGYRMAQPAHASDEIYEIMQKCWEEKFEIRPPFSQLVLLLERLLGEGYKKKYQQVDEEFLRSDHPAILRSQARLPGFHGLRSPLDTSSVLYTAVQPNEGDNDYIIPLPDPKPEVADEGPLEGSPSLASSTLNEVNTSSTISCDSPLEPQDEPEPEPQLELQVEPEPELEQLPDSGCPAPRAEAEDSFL

[9] = molecular target: SLK (Homo sapiens, UniProt Q9H2G2); test: kinome inhibition screen; details: FIG. 3A
Sequence of SLK (Q9H2G2 whole entry): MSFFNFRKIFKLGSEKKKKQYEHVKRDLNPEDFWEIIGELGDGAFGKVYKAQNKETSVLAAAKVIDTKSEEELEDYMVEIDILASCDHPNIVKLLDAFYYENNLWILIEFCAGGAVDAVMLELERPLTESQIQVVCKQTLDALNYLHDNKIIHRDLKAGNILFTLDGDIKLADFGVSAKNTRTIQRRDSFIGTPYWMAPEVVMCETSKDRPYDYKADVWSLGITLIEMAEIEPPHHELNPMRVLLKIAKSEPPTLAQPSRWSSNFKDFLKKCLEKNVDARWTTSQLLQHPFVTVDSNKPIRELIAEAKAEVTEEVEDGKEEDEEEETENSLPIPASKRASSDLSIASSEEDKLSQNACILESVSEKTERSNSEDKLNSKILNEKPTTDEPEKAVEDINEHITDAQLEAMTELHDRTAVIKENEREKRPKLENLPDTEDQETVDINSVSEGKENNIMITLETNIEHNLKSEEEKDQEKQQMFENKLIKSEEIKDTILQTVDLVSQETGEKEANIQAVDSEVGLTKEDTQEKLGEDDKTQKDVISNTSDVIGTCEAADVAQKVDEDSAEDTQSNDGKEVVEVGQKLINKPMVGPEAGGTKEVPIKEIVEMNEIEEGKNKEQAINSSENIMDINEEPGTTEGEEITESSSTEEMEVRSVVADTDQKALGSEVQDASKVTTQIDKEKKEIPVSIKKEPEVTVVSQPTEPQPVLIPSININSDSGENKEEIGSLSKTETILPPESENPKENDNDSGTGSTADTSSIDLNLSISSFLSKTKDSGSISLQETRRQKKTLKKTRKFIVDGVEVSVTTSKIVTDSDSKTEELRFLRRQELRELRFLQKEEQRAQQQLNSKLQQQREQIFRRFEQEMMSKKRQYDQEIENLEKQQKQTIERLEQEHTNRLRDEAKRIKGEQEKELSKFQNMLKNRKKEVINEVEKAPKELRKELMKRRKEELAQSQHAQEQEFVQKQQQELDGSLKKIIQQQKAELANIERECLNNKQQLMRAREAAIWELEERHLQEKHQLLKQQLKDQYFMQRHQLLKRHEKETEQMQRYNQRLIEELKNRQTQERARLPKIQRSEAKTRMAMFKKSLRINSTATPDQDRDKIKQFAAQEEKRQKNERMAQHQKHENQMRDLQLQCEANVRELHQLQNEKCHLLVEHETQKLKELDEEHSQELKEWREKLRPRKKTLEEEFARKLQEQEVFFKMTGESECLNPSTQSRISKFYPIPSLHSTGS

[10] = tested on: AKT S473 phosphorylation; test: AKT S473 phosphorylation in EGI-1 cholangiocarcinoma cells; type: cell-based; details: EGI-1 cell line, compared to control levels
[11] = tested on: SNU-1070; test: tumor organoid assay, SNU-1070 (SNU-1079); type: cell-based; details: SNU-1070 as printed; tivozanib at 200 nM vs control
Method: (§1) Images of control are on the top row, whereas the effects of tivozanib at 200 nM are shown in the bottom row where the tumor organoids are smaller and fewer than in the control.

[12] = molecular target: VEGFR-3 (Homo sapiens, UniProt P35916); details: at clinically relevant concentrations; cited from earlier work
Sequence of VEGFR-3 (P35916 25-1363): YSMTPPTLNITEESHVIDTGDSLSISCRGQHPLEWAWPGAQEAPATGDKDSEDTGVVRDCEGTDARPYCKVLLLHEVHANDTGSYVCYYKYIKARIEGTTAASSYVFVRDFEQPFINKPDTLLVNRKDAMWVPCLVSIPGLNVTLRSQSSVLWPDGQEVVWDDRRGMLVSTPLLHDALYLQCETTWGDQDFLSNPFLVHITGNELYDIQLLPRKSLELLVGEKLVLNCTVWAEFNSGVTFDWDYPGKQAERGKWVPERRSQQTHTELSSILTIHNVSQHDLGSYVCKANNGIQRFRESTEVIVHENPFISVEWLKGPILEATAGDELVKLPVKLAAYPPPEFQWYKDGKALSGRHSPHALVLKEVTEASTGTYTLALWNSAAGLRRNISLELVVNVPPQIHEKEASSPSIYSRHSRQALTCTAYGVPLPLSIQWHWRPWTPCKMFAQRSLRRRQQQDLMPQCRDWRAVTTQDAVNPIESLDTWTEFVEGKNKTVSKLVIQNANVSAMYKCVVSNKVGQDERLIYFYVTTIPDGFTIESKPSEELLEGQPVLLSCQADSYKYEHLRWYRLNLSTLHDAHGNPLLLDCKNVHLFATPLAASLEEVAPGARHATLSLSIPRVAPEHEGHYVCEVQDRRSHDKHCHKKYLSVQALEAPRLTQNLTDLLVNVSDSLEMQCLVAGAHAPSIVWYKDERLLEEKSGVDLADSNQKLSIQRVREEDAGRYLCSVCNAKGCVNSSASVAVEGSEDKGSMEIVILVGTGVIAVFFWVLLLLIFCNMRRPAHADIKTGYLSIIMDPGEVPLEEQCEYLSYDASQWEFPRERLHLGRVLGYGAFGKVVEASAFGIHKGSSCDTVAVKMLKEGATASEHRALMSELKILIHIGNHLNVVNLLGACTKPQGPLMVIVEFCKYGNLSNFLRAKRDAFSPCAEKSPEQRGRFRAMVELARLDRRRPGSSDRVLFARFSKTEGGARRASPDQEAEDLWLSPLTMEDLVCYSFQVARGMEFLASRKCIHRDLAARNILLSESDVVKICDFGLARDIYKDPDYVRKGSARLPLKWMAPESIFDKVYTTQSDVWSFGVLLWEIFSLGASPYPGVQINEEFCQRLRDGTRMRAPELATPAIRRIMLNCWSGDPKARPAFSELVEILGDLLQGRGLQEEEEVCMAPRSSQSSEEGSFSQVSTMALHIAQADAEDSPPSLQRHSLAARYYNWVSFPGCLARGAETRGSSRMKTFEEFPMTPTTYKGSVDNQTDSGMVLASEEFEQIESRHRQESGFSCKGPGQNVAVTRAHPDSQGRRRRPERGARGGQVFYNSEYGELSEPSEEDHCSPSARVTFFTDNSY

[13] = tested on: WITT; test: tumor organoid assay, WITT; type: cell-based; details: tivozanib at 200 nM vs control
Method: as §1

[14] = tested on: liver metastasis from a patient with XPO7-expressing cholangiocarcinoma; test: ex vivo tumor SMART platform, H&E and Ki67 staining; type: cell-based, human
Method: Finally, tivozanib was evaluated in the ex vivo tumor SMART platform described in International Patent Application No. WO2021/183527 which is incorporated by reference herein for all purposes. A liver metastasis from a patient with XPO7-expressing cholangiocarcinoma was evaluated using H&E staining and Ki67 staining to contrast treatment with control versus tivozanib.

[15] = tested on: various tumor cell types including human renal cell carcinoma; details: tumor xenograft models in mice and rats; cited from earlier work
[16] = tested on: EGI-1; test: tumor organoid assay, EGI-1; type: cell-based; details: tivozanib at 200 nM vs control
Method: as §1

[17] = tested on: WITT; test: proliferation of WITT cholangiocarcinoma cells; type: cell-based; details: WITT cell line; IC50 only in FIG. 3C-3E
[18] = tested on: SNU-1079; test: proliferation of SNU-1079 cholangiocarcinoma cells; type: cell-based; details: SNU-1079 cell line; IC50 only in FIG. 3C-3E

COc1cc2nccc(Oc3ccc(NC(=O)Nc4cc(C)on4)c(Cl)c3)c2cc1OC [Tivozanib hydrochloride, 1-{2-chloro-4-[(6,7-dimethoxyquinolin-4-yl)oxy]phenyl}-3-(5-methylisoxazol-3-yl) urea hydrochloride hydrate]
solubility in water [1]: practically insoluble in water

bevacizumab: an anti-VEGF antibody
average tumor volume vs control group ([2]; bevacizumab, standard murine dose, 28 days of treatment): statistically significantly smaller

COc1cc2nccc(Oc3ccc(NC(=O)Nc4cc(C)on4)c(Cl)c3)c2cc1OC [tivozanib, N-{2-chloro-4-[(6,7-dimethoxy-4-quinolyl)oxy]-phenyl}-N′-(5-methyl-3-isoxazolyl) urea]
incidence of hypertension [3]: high incidence | AKT S473 phosphorylation [4]: inhibited AKT S473 phosphorylation | inhibition of c-kit [5]: inhibits | proliferation [6]: inhibited proliferation | AKT S473 phosphorylation [7]: inhibited AKT S473 phosphorylation | inhibition of PDGFR β [8]: inhibits | inhibition of SLK [9]: potent inhibitor of SLK | AKT S473 phosphorylation [10]: inhibited AKT S473 phosphorylation | tumor organoid formation [11]: abrogated tumor formation | phosphorylation of VEGFR-3 [12]: inhibits phosphorylation | tumor organoid formation [13]: abrogated tumor formation | tumor growth in vivo ([2]; EGI-1 subcutaneous xenograft): inhibited tumor growth | final tumor volume vs control vehicle ([2]; tivozanib 20 mg/kg/day for 28 days, p value of <0.001): statistically significantly smaller in volume | change in tumor volume over the course of treatment ([2]; waterfall plot FIG. 3I, compared to control): substantial change in tumor volume | cell degeneration ([14]; 0.2 μg/mL tivozanib): statistically significant increased cell degeneration | viable cells compared to control ([14]; 0.2 μg/mL tivozanib): fewer viable cells | cell degeneration ([14]; 1 μg/mL tivozanib): statistically significant increased cell degeneration | viable cells compared to control ([14]; 1 μg/mL tivozanib): fewer viable cells | Ki67 staining (dark stained nuclei) ([14]; day 4, vs control tissue (0 μg/mL tivozanib)): reduction in dark stained nuclei | cell death ([14]; higher dose level (1 μg/mL tivozanib)): statistically significant levels of cell death | angiogenesis [15]: inhibited | tumor growth [15]: inhibited | tumor organoid formation [16]: abrogated tumor formation | proliferation [17]: inhibited proliferation | proliferation [18]: inhibited proliferation
